Assay results taken from publication PMC9124651, “High-performance thin-layer chromatography in combination with an acetylcholinesterase-inhibition bioassay with pre-oxidation of organothiophosphates to determine neurotoxic effects in storm, waste, and surface water” (Analytical and Bioanalytical Chemistry, 2022).

Molecular target: T1, AChE from electric eel (Electrophorus electricus) (Electrophorus electricus, UniProt O42275)
T1 construct: purchased Sigma-Aldrich GmbH (Steinheim, Germany)
Assay: HPTLC-(Ox)-AChE-I assay, spray method (AChE sprayed onto plates)
Format: biochemical
Settings: spray method, without oxidation; for IC10 (10% AChE inhibition), best fit / IC20 (20% AChE inhibition), best fit / IC50 (50% AChE inhibition), best fit / IC80 (80% AChE inhibition), best fit: OTPs 100 µL, oxons 10 µL applied, peak heights, n = 3
Procedure: LiChrospher 10 × 20 cm HPTLC Silica gel 60 F254s plates (Merck, Darmstadt, Germany) with a layer thickness of 170–190 µm and spherical silica particles with a size of 7 µm were used. The HPTLC plates were immersed twice in 2-propanol for 20 min, each time followed by a drying step at room temperature for 20 min. The plates then were pre-developed with methanol, dried for 20 min at room temperature, heated at 105 °C for 20 min, and stored in a desiccator for further use. The automatic TLC Sampler 4 (ATS 4, CAMAG AG, Muttenz, Switzerland) was used for sample application. The desired sample volumes were sprayed as 6-mm-wide bands onto the HPTLC plates with an application speed of 300 nL/s. The distances of the exterior bands from the edges of the plates were 15 mm. The distance from the bottom edge was 8 mm for all bands. Methanol was used as rinsing solvent. The following further application parameters were used: filling speed 15 µL/s, pre-dosage volume 200 nL, retraction volume 200 nL, rinsing vacuum time 4 s, filling vacuum time 0 s, rinsing cycles 2, and filling cycles 1. The development of the HPTLC plates was realized by the Automated Multiple Development 2 (AMD 2, CAMAG, Muttenz, Switzerland). The OTPs, their oxons, and environmental samples were separated with an eluent mixture of cyclohexane, dichloromethane, and acetone in different proportions and with increasing migration distances (Fig. S2). After each development step, a drying step of 3 min under vacuum followed. The final migration distance was 80 mm and the whole procedure took approximately 45 min. In addition, a simpler development process was used containing only the last step of the previous described method.
The following AChE-I assay was performed in parts according to Mendoza et al., Stütz et al., and Weins and Jork. AChE was buffered in TRIS/HCl at a pH of 7.8 (2.5 U/mL). The AChE solution was either sprayed onto the HPTLC plates with a glass reagent sprayer until the plates were evenly moist (approx. 10 mL) or the plates were immersed in the AChE solution using the Chromatogram Immersion Device 3 (CID 3, CAMAG, Muttenz, Switzerland). The immersion volume, speed, time, and depth were approx. 200 mL, 2.5 cm/s, 2 s, and approx. 85 mm, respectively. Afterward, the plates were placed separately in closed plastic boxes, which contained paper towels moistened with water to gain a saturated atmosphere. An incubation at 37 °C for 5 min followed. The substrate indoxyl acetate was freshly prepared in methanol at a concentration of 20 mg/mL and 5 mL was sprayed onto the HPTLC plates with a glass reagent sprayer. During 45-min incubation time at room temperature, AChE cleaves the substrate into indoxyl and acetate. The indoxyl reacts with oxygen to the blue indigo dye. When AChE was inhibited, no indigo was produced and the spot stayed white. The TLC Scanner 3 (CAMAG, Muttenz, Switzerland) was used to scan each track on the plates at 670 nm using the fluorescence mode without optical filter. The CAMAG-embedded software Wincats (Vers. 1.4.9) was used to provide chromatograms of each track and to evaluate inhibition zones.
Several amounts of an OTP mix and an oxon mix were applied on HPTLC plates (Tab. S2) and tested as described in the “Combination of HPTLC and AChE-inhibition assay” section. Three plates were used for each dilution series. The application volume was 10 µL for investigating OTPs with following oxidation and 100 µL for testing OTPs without following oxidation. The application volume for the oxons was 10 µL. They were tested without oxidation step also in triplicates. The peak heights were used for evaluation. Only peaks that have a signal-to-noise ratio ≥ 3 were considered in the evaluation. The height next to the respective peak defines the noise.

T1 sequence (O42275 24-633): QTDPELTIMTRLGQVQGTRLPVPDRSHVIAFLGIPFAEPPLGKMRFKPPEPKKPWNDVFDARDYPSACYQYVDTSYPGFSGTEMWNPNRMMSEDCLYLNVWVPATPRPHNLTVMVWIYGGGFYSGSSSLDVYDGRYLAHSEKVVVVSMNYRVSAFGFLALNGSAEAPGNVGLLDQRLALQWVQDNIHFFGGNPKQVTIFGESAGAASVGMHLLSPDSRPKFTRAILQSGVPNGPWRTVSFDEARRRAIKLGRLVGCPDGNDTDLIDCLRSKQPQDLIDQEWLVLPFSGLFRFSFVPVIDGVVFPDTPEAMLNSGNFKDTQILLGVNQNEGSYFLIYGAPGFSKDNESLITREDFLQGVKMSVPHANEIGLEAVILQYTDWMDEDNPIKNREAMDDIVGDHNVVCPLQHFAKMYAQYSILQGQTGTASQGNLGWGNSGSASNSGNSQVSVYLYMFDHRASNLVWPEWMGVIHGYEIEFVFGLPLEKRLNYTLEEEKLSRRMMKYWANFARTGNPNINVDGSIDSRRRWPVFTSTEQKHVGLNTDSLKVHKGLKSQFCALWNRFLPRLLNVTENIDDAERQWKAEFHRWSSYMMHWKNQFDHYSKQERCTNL

Compound: CCOP(=O)(OCC)Oc1nc(Cl)c(Cl)cc1Cl [Chlorpyrifos-oxon]
- LOD spray method (first detected AChE-I peak with signal-to-noise ratio ≥ 3): 0.25 ng/spot
- IC10 (10% AChE inhibition), best fit: 0.72 ng/spot
- IC20 (20% AChE inhibition), best fit: 1.1 ng/spot
- IC50 (50% AChE inhibition), best fit: 2.5 ng/spot
- IC80 (80% AChE inhibition), best fit: 5.4 ng/spot

Compound: CCOC(=O)CC(SP(=O)(OC)OC)C(=O)OCC (stereo not shown) [Malaoxon, malaoxon]
- LOD spray method (first detected AChE-I peak with signal-to-noise ratio ≥ 3): 0.1 ng/spot
- IC10 (10% AChE inhibition), best fit: 0.16 ng/spot
- IC20 (20% AChE inhibition), best fit: 0.28 ng/spot
- IC50 (50% AChE inhibition), best fit: 0.75 ng/spot
- IC80 (80% AChE inhibition), best fit: 2.0 ng/spot
